According to ChEMBL document CHEMBL3045090, “Synthesis, insecticidal activity, and structure-activity relationship of trifluoromethyl-containing phthalic acid diamide structures” (2010):
In brackets after ≈: the same amount, converted by molar mass.

System: Plutella xylostella
Assay: Insecticidal activity against third-instar larval stage of Plutella xylostella (diamondback moth) in cabbage leaves assessed as mortality at 100 ug/ml treated for 10 secs before larva infestation measured after 2 days by dipping method
Type: functional
Conditions: 48 h

Question: Which mortality at 100 µg/mL does the source give for `CC(C)(C)NC(=O)c1c(I)cccc1C(=O)Nc1cc(F)cc(C(F)(F)F)c1` here?
Answer: The mortality at 100 µg/mL was 14%.

Question: `CC(C)(C)NC(=O)c1c(I)cccc1C(=O)Nc1cc(C(F)(F)F)ccc1F` was tested. Which mortality at 100 µg/mL did it give?
Answer: Its mortality at 100 µg/mL is 57%.

Question: For `CC(C)(CS(C)(=O)=O)NC(=O)c1c(I)cccc1C(=O)Nc1ccc(C#N)c(C(F)(F)F)c1`, which mortality at 100 µg/mL is on record?
Answer: Its mortality at 100 µg/mL is 57%.

Question: Which mortality at 100 µg/mL does the source give for `COc1ccc(NC(=O)c2cccc(I)c2C(=O)NC(C)(C)C)cc1C(F)(F)F` here?
Answer: Its mortality at 100 µg/mL is 0%.

Question: Which mortality at 100 µg/mL does the source give for `COc1cc(NC(=O)c2cccc(I)c2C(=O)NC(C)(C)CS(C)(=O)=O)cc(C(F)(F)F)c1` here?
Answer: Its mortality at 100 µg/mL is 0%.

Question: Which mortality at 100 µg/mL does the source give for `COc1ccc(C(F)(F)F)cc1NC(=O)c1cccc(I)c1C(=O)NC(C)(C)C` here?
Answer: The mortality at 100 µg/mL was 0%.

Question: `CC(C)(CS(C)(=O)=O)NC(=O)c1c(I)cccc1C(=O)Nc1ccc(Cl)c(C(F)(F)F)c1` was tested. Which mortality at 100 µg/mL did it give?
Answer: The mortality at 100 µg/mL was 100%.

Question: How did the mortality at 100 µg/mL turn out when `CC(C)(CS(C)(=O)=O)NC(=O)c1c(I)cccc1C(=O)Nc1cc(F)cc(C(F)(F)F)c1` was run?
Answer: The mortality at 100 µg/mL was 100%.

Question: `COc1ccc(C(F)(F)F)cc1NC(=O)c1cccc(I)c1C(=O)NC(C)(C)CSC` was tested. Which mortality at 100 µg/mL did it give?
Answer: Its mortality at 100 µg/mL is 5%.

Question: How did the mortality at 100 µg/mL turn out when `CSCC(C)(C)NC(=O)c1c(I)cccc1C(=O)Nc1cc(C(F)(F)F)cc(C(F)(F)F)c1` was run?
Answer: The mortality at 100 µg/mL was 71%.

Question: Which mortality at 100 µg/mL does the source give for `CSCC(C)(C)NC(=O)c1c(I)cccc1C(=O)Nc1cc(F)cc(C(F)(F)F)c1` here?
Answer: The mortality at 100 µg/mL was 90%.

Question: How did the mortality at 100 µg/mL turn out when `COCC(C)(C)NC(=O)c1c(I)cccc1C(=O)Nc1cc(F)cc(C(F)(F)F)c1` was run?
Answer: Its mortality at 100 µg/mL is 10%.

Question: With `COCC(C)(C)NC(=O)c1c(I)cccc1C(=O)Nc1cc(C(F)(F)F)ccc1OC` as the compound, how does the mortality at 100 µg/mL read?
Answer: The mortality at 100 µg/mL was 0%.

Question: With `COc1cc(NC(=O)c2cccc(I)c2C(=O)NC(C)(C)C)cc(C(F)(F)F)c1` as the compound, how does the mortality at 100 µg/mL read?
Answer: The mortality at 100 µg/mL was 10%.

Question: `COCC(C)(C)NC(=O)c1c(I)cccc1C(=O)Nc1cc(C(F)(F)F)ccc1F` was tested. Which mortality at 100 µg/mL did it give?
Answer: Its mortality at 100 µg/mL is 6%.

Question: How did the mortality at 100 µg/mL turn out when `COc1cc(NC(=O)c2cccc(I)c2C(=O)NC(C)(C)CSC)cc(C(F)(F)F)c1` was run?
Answer: The mortality at 100 µg/mL was 0%.

Question: For `CSCC(C)(C)NC(=O)c1c(I)cccc1C(=O)Nc1ccc(Cl)c(C(F)(F)F)c1`, which mortality at 100 µg/mL is on record?
Answer: Its mortality at 100 µg/mL is 100%.

Question: For `CSCC(C)(C)NC(=O)c1c(I)cccc1C(=O)Nc1cc(C(F)(F)F)ccc1F`, which mortality at 100 µg/mL is on record?
Answer: Its mortality at 100 µg/mL is 41%.

System: Plutella xylostella
Assay: Insecticidal activity against third-instar larval stage of Plutella xylostella (diamondback moth) in cabbage leaves assessed as mortality at 5 ug/ml treated for 10 secs before larva infestation measured for 3 days by dipping method
Type: functional
Conditions: 72 h

Question: For `CC(C)(CS(C)(=O)=O)NC(=O)c1c(I)cccc1C(=O)Nc1ccc(Cl)c(C(F)(F)F)c1`, which mortality at 5 µg/mL is on record?
Answer: Its mortality at 5 µg/mL is 100%.

Question: Which mortality at 5 µg/mL does the source give for `CSCC(C)(C)NC(=O)c1c(I)cccc1C(=O)Nc1ccc(Cl)c(C(F)(F)F)c1` here?
Answer: The mortality at 5 µg/mL was 100%.

System: Plutella xylostella
Assay: Insecticidal activity against third-instar larval stage of Plutella xylostella (diamondback moth) in cabbage leaves assessed as mortality at 10 ug/ml treated for 10 secs before larva infestation measured after 3 days by dipping method
Type: functional
Conditions: 72 h

Question: For `CC(C)(CS(C)(=O)=O)NC(=O)c1c(I)cccc1C(=O)Nc1ccc(C#N)c(C(F)(F)F)c1`, which mortality at 10 µg/mL is on record?
Answer: Its mortality at 10 µg/mL is 50%.

Question: For `CC(C)(CS(C)(=O)=O)NC(=O)c1c(I)cccc1C(=O)Nc1cc(F)cc(C(F)(F)F)c1`, which mortality at 10 µg/mL is on record?
Answer: The mortality at 10 µg/mL was 91%.

Question: For `CSCC(C)(C)NC(=O)c1c(I)cccc1C(=O)Nc1cc(F)cc(C(F)(F)F)c1`, which mortality at 10 µg/mL is on record?
Answer: Its mortality at 10 µg/mL is 100%.

System: Plutella xylostella
Assay: Insecticidal activity against third-instar larval stage of Plutella xylostella (diamondback moth) in cabbage leaves assessed as mortality at 10 ug/ml treated for 10 secs before larva infestation measured after 2 days by dipping method
Type: functional
Conditions: 48 h

Question: Which mortality at 10 µg/mL does the source give for `CC(C)(CS(C)(=O)=O)NC(=O)c1c(I)cccc1C(=O)Nc1ccc(C#N)c(C(F)(F)F)c1` here?
Answer: Its mortality at 10 µg/mL is 0%.

Question: For `CC(C)(CS(C)(=O)=O)NC(=O)c1c(I)cccc1C(=O)Nc1ccc(Cl)c(C(F)(F)F)c1`, which mortality at 10 µg/mL is on record?
Answer: The mortality at 10 µg/mL was 100%.

Question: For `CC(C)(CS(C)(=O)=O)NC(=O)c1c(I)cccc1C(=O)Nc1cc(F)cc(C(F)(F)F)c1`, which mortality at 10 µg/mL is on record?
Answer: Its mortality at 10 µg/mL is 57%.

Question: How did the mortality at 10 µg/mL turn out when `CSCC(C)(C)NC(=O)c1c(I)cccc1C(=O)Nc1cc(F)cc(C(F)(F)F)c1` was run?
Answer: Its mortality at 10 µg/mL is 43%.

Question: `CSCC(C)(C)NC(=O)c1c(I)cccc1C(=O)Nc1ccc(Cl)c(C(F)(F)F)c1` was tested. Which mortality at 10 µg/mL did it give?
Answer: The mortality at 10 µg/mL was 100%.

System: Plutella xylostella
Assay: Insecticidal activity against third-instar larval stage of Plutella xylostella (diamondback moth) in cabbage leaves assessed as mortality treated for 10 secs before larva infestation measured for 3 days by dipping method
Type: functional
Conditions: 72 h

Question: `CC(C)(CS(C)(=O)=O)NC(=O)c1c(I)cccc1C(=O)Nc1ccc(Cl)c(C(F)(F)F)c1` was tested. Which LC50 did it give?
Answer: The LC50 was 0.98 µg/mL (≈ 1.63 µM).

Question: How did the LC50 turn out when `CSCC(C)(C)NC(=O)c1c(I)cccc1C(=O)Nc1ccc(Cl)c(C(F)(F)F)c1` was run?
Answer: The LC50 was 0.42 µg/mL (≈ 0.736 µM).

System: Plutella xylostella
Assay: Insecticidal activity against third-instar larval stage of Plutella xylostella (diamondback moth) in cabbage leaves assessed as mortality at 0.1 ug/ml treated for 10 secs before larva infestation measured for 3 days by dipping method
Type: functional
Conditions: 72 h

Question: How did the mortality at 0.1 µg/mL turn out when `CC(C)(CS(C)(=O)=O)NC(=O)c1c(I)cccc1C(=O)Nc1ccc(Cl)c(C(F)(F)F)c1` was run?
Answer: The mortality at 0.1 µg/mL was 4.8%.

Question: For `CSCC(C)(C)NC(=O)c1c(I)cccc1C(=O)Nc1ccc(Cl)c(C(F)(F)F)c1`, which mortality at 0.1 µg/mL is on record?
Answer: Its mortality at 0.1 µg/mL is 0%.

System: Plutella xylostella
Assay: Insecticidal activity against third-instar larval stage of Plutella xylostella (diamondback moth) in cabbage leaves assessed as mortality at 1 ug/ml treated for 10 secs before larva infestation measured for 3 days by dipping method
Type: functional
Conditions: 72 h

Question: How did the mortality at 1 µg/mL turn out when `CC(C)(CS(C)(=O)=O)NC(=O)c1c(I)cccc1C(=O)Nc1ccc(Cl)c(C(F)(F)F)c1` was run?
Answer: Its mortality at 1 µg/mL is 52%.

Question: `CSCC(C)(C)NC(=O)c1c(I)cccc1C(=O)Nc1ccc(Cl)c(C(F)(F)F)c1` was tested. Which mortality at 1 µg/mL did it give?
Answer: Its mortality at 1 µg/mL is 62%.

System: Plutella xylostella
Assay: Insecticidal activity against third-instar larval stage of Plutella xylostella (diamondback moth) in cabbage leaves assessed as mortality at 0.5 ug/ml treated for 10 secs before larva infestation measured for 3 days by dipping method
Type: functional
Conditions: 72 h

Question: How did the mortality at 0.5 µg/mL turn out when `CC(C)(CS(C)(=O)=O)NC(=O)c1c(I)cccc1C(=O)Nc1ccc(Cl)c(C(F)(F)F)c1` was run?
Answer: The mortality at 0.5 µg/mL was 29%.

Question: Which mortality at 0.5 µg/mL does the source give for `CSCC(C)(C)NC(=O)c1c(I)cccc1C(=O)Nc1ccc(Cl)c(C(F)(F)F)c1` here?
Answer: Its mortality at 0.5 µg/mL is 57%.

System: Plutella xylostella
Assay: Insecticidal activity against third-instar larval stage of Plutella xylostella (diamondback moth) in cabbage leaves assessed as mortality at 100 ug/ml treated for 10 secs before larva infestation measured after 3 days by dipping method
Type: functional
Conditions: 72 h

Question: How did the mortality at 100 µg/mL turn out when `CC(C)(C)NC(=O)c1c(I)cccc1C(=O)Nc1cc(F)cc(C(F)(F)F)c1` was run?
Answer: The mortality at 100 µg/mL was 76%.

Question: With `CC(C)(C)NC(=O)c1c(I)cccc1C(=O)Nc1cc(C(F)(F)F)ccc1F` as the compound, how does the mortality at 100 µg/mL read?
Answer: Its mortality at 100 µg/mL is 62%.

Question: `CC(C)(CS(C)(=O)=O)NC(=O)c1c(I)cccc1C(=O)Nc1ccc(C#N)c(C(F)(F)F)c1` was tested. Which mortality at 100 µg/mL did it give?
Answer: The mortality at 100 µg/mL was 100%.

Question: `COc1ccc(NC(=O)c2cccc(I)c2C(=O)NC(C)(C)C)cc1C(F)(F)F` was tested. Which mortality at 100 µg/mL did it give?
Answer: The mortality at 100 µg/mL was 5%.

Question: How did the mortality at 100 µg/mL turn out when `COc1cc(NC(=O)c2cccc(I)c2C(=O)NC(C)(C)CS(C)(=O)=O)cc(C(F)(F)F)c1` was run?
Answer: The mortality at 100 µg/mL was 0%.

Question: Which mortality at 100 µg/mL does the source give for `COc1ccc(C(F)(F)F)cc1NC(=O)c1cccc(I)c1C(=O)NC(C)(C)C` here?
Answer: Its mortality at 100 µg/mL is 0%.

Question: With `COc1ccc(C(F)(F)F)cc1NC(=O)c1cccc(I)c1C(=O)NC(C)(C)CSC` as the compound, how does the mortality at 100 µg/mL read?
Answer: The mortality at 100 µg/mL was 5%.

Question: With `CSCC(C)(C)NC(=O)c1c(I)cccc1C(=O)Nc1cc(C(F)(F)F)cc(C(F)(F)F)c1` as the compound, how does the mortality at 100 µg/mL read?
Answer: The mortality at 100 µg/mL was 85%.

Question: Which mortality at 100 µg/mL does the source give for `CSCC(C)(C)NC(=O)c1c(I)cccc1C(=O)Nc1cc(F)cc(C(F)(F)F)c1` here?
Answer: Its mortality at 100 µg/mL is 100%.

Question: How did the mortality at 100 µg/mL turn out when `COCC(C)(C)NC(=O)c1c(I)cccc1C(=O)Nc1cc(F)cc(C(F)(F)F)c1` was run?
Answer: Its mortality at 100 µg/mL is 19%.

Question: With `COCC(C)(C)NC(=O)c1c(I)cccc1C(=O)Nc1cc(C(F)(F)F)ccc1OC` as the compound, how does the mortality at 100 µg/mL read?
Answer: The mortality at 100 µg/mL was 0%.

Question: `COc1cc(NC(=O)c2cccc(I)c2C(=O)NC(C)(C)C)cc(C(F)(F)F)c1` was tested. Which mortality at 100 µg/mL did it give?
Answer: The mortality at 100 µg/mL was 10%.

Question: `COCC(C)(C)NC(=O)c1c(I)cccc1C(=O)Nc1cc(C(F)(F)F)ccc1F` was tested. Which mortality at 100 µg/mL did it give?
Answer: Its mortality at 100 µg/mL is 12%.

Question: `COc1cc(NC(=O)c2cccc(I)c2C(=O)NC(C)(C)CSC)cc(C(F)(F)F)c1` was tested. Which mortality at 100 µg/mL did it give?
Answer: Its mortality at 100 µg/mL is 5%.

Question: `CSCC(C)(C)NC(=O)c1c(I)cccc1C(=O)Nc1cc(C(F)(F)F)ccc1F` was tested. Which mortality at 100 µg/mL did it give?
Answer: Its mortality at 100 µg/mL is 65%.
